Results: the NIST ThermoML archive (doi:10.1007/s10765-018-2359-2)

How the values were obtained:
[1] = xn = mol fraction of the nth substance listed; settings: 100 kPa, Liquid; for thermal conductivity: transient hot wire
[2] = 100 kPa, Liquid; for thermal conductivity: transient hot wire

CCOP(=O)([O-])OCC.CCn1cc[n+](C)c1 [1-ethyl-3-methylimidazolium diethyl phosphate] + O
[1]
Settings | mass density, x1 = 0.2 [kg/m3] | mass density, x1 = 0.4 [kg/m3] | mass density, x1 = 0.6 [kg/m3] | mass density, x1 = 0.8 [kg/m3] | mass density, x1 = 1 [kg/m3] | thermal conductivity, x1 = 0.2 [W/m/K] | thermal conductivity, x1 = 0.4 [W/m/K] | thermal conductivity, x1 = 0.6 [W/m/K] | thermal conductivity, x1 = 0.8 [W/m/K] | thermal conductivity, x1 = 1 [W/m/K]
303.15 K | 1133.7 | 1137.4 | 1139.3 | 1143.2 | 1144.9 | – | – | – | – | –
313.15 K | 1126 | 1131.3 | 1133.3 | 1137.2 | 1139.2 | 0.2341 | 0.1964 | 0.1849 | 0.1783 | 0.1745
333.15 K | 1112.4 | 1118.3 | 1121.1 | 1124.4 | 1127.2 | – | – | – | – | –
353.15 K | 1098.8 | 1105.7 | 1108.9 | 1118 | 1115.2 | – | – | – | – | –

O [water]
[2]
Settings | thermal conductivity [W/m/K]
302.39 K | 0.6187
314.31 K | 0.6334
333.54 K | 0.656
353.53 K | 0.67

CCOP(=O)([O-])OCC.CCn1cc[n+](C)c1 [1-ethyl-3-methylimidazolium diethyl phosphate]
[2]
Settings | mass density [kg/m3] | thermal conductivity [W/m/K]
303.15 K | 1144.9 | –
313.15 K | 1139.2 | 0.1745
333.15 K | 1127.2 | –
353.15 K | 1115.2 | –
